# Reference: PubChem BioAssay AID1963974 (Molecular Pharmacology Branch, DTP, NCI, 2024)
# Several values for one entry are separate records, joined by “and”; a condition that tells them apart may be missing. Equal values may be shown once.
# Test system: 648629-189-R-J1-PDC spheroids with HUVEC/MSC, viability
# Assay: Anticancer human tumor 648629-189-R-J1-PDC patient-derived bladder carcinoma cell line growth inhibition [PI3K]
# Details: for viability, T/C: stronger effect = lower value
# In short: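 Viability of mixed-cell spheroids was determined after exposure to pairwise combinations, one partner being inavolisib, alpelisib, duvelisib or copanlisib. Highest tested concentration matched clinical Cmax where known and 10 microM where not, descending in half-log steps.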
# [1] = curve of first compound, second compound 0.00316 µM
# [2] = curve of first compound, second compound 0.01 µM
# [3] = curve of first compound, second compound 0.0316 µM
# [4] = curve of first compound, second compound 0.1 µM
# [5] = curve of first compound, second compound 0.316 µM
# [6] = curve of first compound, second compound 1 µM
# [7] = second compound 0.00316 µM, first compound 0.0316 µM
# [8] = second compound 0.00316 µM, first compound 0.1 µM
# [9] = second compound 0.00316 µM, first compound 0.316 µM
# [10] = second compound 0.00316 µM, first compound 1 µM
# [11] = second compound 0.01 µM, first compound 0.0316 µM
# [12] = second compound 0.01 µM, first compound 0.1 µM
# [13] = second compound 0.01 µM, first compound 0.316 µM
# [14] = second compound 0.01 µM, first compound 1 µM
# [15] = second compound 0.0316 µM, first compound 0.0316 µM
# [16] = second compound 0.0316 µM, first compound 0.1 µM
# [17] = second compound 0.0316 µM, first compound 0.316 µM
# [18] = second compound 0.0316 µM, first compound 1 µM
# [19] = second compound 0.0316 µM, first compound 3.16 µM
# [20] = second compound 0.0316 µM, first compound 10 µM
# [21] = second compound 0.1 µM, first compound 0.0316 µM
# [22] = second compound 0.1 µM, first compound 0.1 µM
# [23] = second compound 0.1 µM, first compound 0.316 µM
# [24] = second compound 0.1 µM, first compound 1 µM
# [25] = second compound 0.1 µM, first compound 3.16 µM
# [26] = second compound 0.1 µM, first compound 10 µM
# [27] = second compound 0.316 µM, first compound 0.0316 µM
# [28] = second compound 0.316 µM, first compound 0.1 µM
# [29] = second compound 0.316 µM, first compound 0.316 µM
# [30] = second compound 0.316 µM, first compound 1 µM
# [31] = second compound 0.316 µM, first compound 3.16 µM
# [32] = second compound 0.316 µM, first compound 10 µM
# [33] = second compound 1 µM, first compound 0.0316 µM
# [34] = second compound 1 µM, first compound 0.1 µM
# [35] = second compound 1 µM, first compound 0.316 µM
# [36] = second compound 1 µM, first compound 1 µM
# [37] = second compound 1 µM, first compound 3.16 µM
# [38] = second compound 1 µM, first compound 10 µM
# 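Also: spheroids exposed to agents for seven days before reading.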
# 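For viability, T/C in this document: percent of vehicle control luminescence where 100% = DMSO treated spheroids.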
structure (smiles),measurement,setting,value
CC(C)NCC(C(=O)N1CCN(c2ncnc3c2C(C)CC3O)CC1)c1ccc(Cl)cc1 (centres undefined),"viability, T/C",compound 0.0316 µM,95.2% and 106% (2×) and 98.2%
same,"viability, T/C",compound 0.316 µM,86% [middle of 4 runs]
same,"viability, T/C",compound 1 µM,48% [middle of 4 runs]
same,"viability, T/C",compound 3.16 µM,29.7% [middle of 4 runs]
same,"viability, T/C",compound 10 µM,16.6% and 15.3% (2×) and 14.4%
same,IC50,curve of compound,1.06 µM [middle of 4 runs]
CC1(C)CCC(CN2CCN(c3ccc(C(=O)NS(=O)(=O)c4ccc(NCC5CCOCC5)c([N+](=O)[O-])c4)c(Oc4cnc5[nH]ccc5c4)c3)CC2)=C(c2ccc(Cl)cc2)C1 + CC(Nc1ccc2c(c1)OCCn1cc(N3C(=O)OCC3C(F)F)nc1-2)C(N)=O,IC50,[1],4770 nM
same,IC50,[2],4840 nM
same,IC50,[3],4550 nM
same,IC50,[4],5280 nM
same,IC50,[5],4450 nM
same,IC50,[6],4340 nM
same,"viability, T/C",[7],101%
same,"viability, T/C",[8],90.9%
same,"viability, T/C",[9],92.9%
same,"viability, T/C",[10],80.7%
same,"viability, T/C","second compound 0.00316 µM, first compound 3.16 µM",76.7%
same,"viability, T/C","second compound 0.00316 µM, first compound 10 µM",8.54%
same,"viability, T/C",[11],122%
same,"viability, T/C",[12],88.3%
same,"viability, T/C",[13],106%
same,"viability, T/C",[14],86%
same,"viability, T/C","second compound 0.01 µM, first compound 3.16 µM",80.7%
same,"viability, T/C","second compound 0.01 µM, first compound 10 µM",7.49%
same,"viability, T/C",[15],110%
same,"viability, T/C",[16],102%
same,"viability, T/C",[17],98.2%
same,"viability, T/C",[18],89.5%
same,"viability, T/C",[19],71.3%
same,"viability, T/C",[20],9.16%
same,"viability, T/C",[21],84.5%
same,"viability, T/C",[22],99.8%
same,"viability, T/C",[23],90.5%
same,"viability, T/C",[24],95.6%
same,"viability, T/C",[25],83.8%
same,"viability, T/C",[26],7.86%
same,"viability, T/C",[27],74.7%
same,"viability, T/C",[28],76%
same,"viability, T/C",[29],79.4%
same,"viability, T/C",[30],77.6%
same,"viability, T/C",[31],67.5%
same,"viability, T/C",[32],7.9%
same,"viability, T/C",[33],74.2%
same,"viability, T/C",[34],63.4%
same,"viability, T/C",[35],62.5%
same,"viability, T/C",[36],67.3%
same,"viability, T/C",[37],65.7%
same,"viability, T/C",[38],8.61%
CCN1CCN(Cc2ccc(Nc3ncc(F)c(-c4cc(F)c5nc(C)n(C(C)C)c5c4)n3)nc2)CC1 + COc1c(OCCCN2CCOCC2)ccc2c3n(c(=NC(=O)c4cnc(N)nc4)nc12)CCN3,IC50,[1],> 1000 nM
same,IC50,[2],> 1000 nM
same,IC50,[3],> 1000 nM
same,IC50,[4],> 1000 nM
same,IC50,[5],< 3.16 nM
same,IC50,[6],< 3.16 nM
same,"viability, T/C","second compound 0.00316 µM, first compound 0.00316 µM",91%
same,"viability, T/C","second compound 0.00316 µM, first compound 0.01 µM",94.8%
same,"viability, T/C",[7],110%
same,"viability, T/C",[8],101%
same,"viability, T/C",[9],115%
same,"viability, T/C",[10],104%
same,"viability, T/C","second compound 0.01 µM, first compound 0.00316 µM",102%
same,"viability, T/C","second compound 0.01 µM, first compound 0.01 µM",87.8%
same,"viability, T/C",[11],98.9%
same,"viability, T/C",[12],96.5%
same,"viability, T/C",[13],103%
same,"viability, T/C",[14],106%
same,"viability, T/C","second compound 0.0316 µM, first compound 0.00316 µM",84.9%
same,"viability, T/C","second compound 0.0316 µM, first compound 0.01 µM",79%
same,"viability, T/C",[15],91.3%
same,"viability, T/C",[16],88.5%
same,"viability, T/C",[17],87.9%
same,"viability, T/C",[18],91%
same,"viability, T/C","second compound 0.1 µM, first compound 0.00316 µM",58.6%
same,"viability, T/C","second compound 0.1 µM, first compound 0.01 µM",62.4%
same,"viability, T/C",[21],56%
same,"viability, T/C",[22],58.5%
same,"viability, T/C",[23],66.6%
same,"viability, T/C",[24],66.1%
same,"viability, T/C","second compound 0.316 µM, first compound 0.00316 µM",21.4%
same,"viability, T/C","second compound 0.316 µM, first compound 0.01 µM",18.9%
same,"viability, T/C",[27],18.8%
same,"viability, T/C",[28],19.7%
same,"viability, T/C",[29],24.1%
same,"viability, T/C",[30],21.7%
same,"viability, T/C","second compound 1 µM, first compound 0.00316 µM",3.05%
same,"viability, T/C","second compound 1 µM, first compound 0.01 µM",2.93%
same,"viability, T/C",[33],2.76%
same,"viability, T/C",[34],4.51%
same,"viability, T/C",[35],6.23%
same,"viability, T/C",[36],9.27%
CC(C)NCC(C(=O)N1CCN(c2ncnc3c2C(C)CC3O)CC1)c1ccc(Cl)cc1 (centres undefined) + Cc1nc(NC(=O)N2CCCC2C(N)=O)sc1-c1ccnc(C(C)(C)C(F)(F)F)c1,IC50,[3],719 nM
same,IC50,[4],784 nM
same,IC50,[5],648 nM
same,IC50,[6],506 nM
same,IC50,"curve of first compound, second compound 3.16 µM",154 nM
same,IC50,"curve of first compound, second compound 10 µM",< 31.6 nM
same,"viability, T/C",[15],105%
same,"viability, T/C",[16],82.2%
same,"viability, T/C",[17],73.8%
same,"viability, T/C",[18],40.5%
same,"viability, T/C",[19],23.2%
same,"viability, T/C",[20],15.7%
same,"viability, T/C",[21],102%
same,"viability, T/C",[22],91%
same,"viability, T/C",[23],75.2%
same,"viability, T/C",[24],42.2%
same,"viability, T/C",[25],23.1%
same,"viability, T/C",[26],12.8%
same,"viability, T/C",[27],84.1%
same,"viability, T/C",[28],80.6%
same,"viability, T/C",[29],70.6%
same,"viability, T/C",[30],36.7%
same,"viability, T/C",[31],22%
same,"viability, T/C",[32],12.5%
same,"viability, T/C",[33],69.6%
same,"viability, T/C",[34],88.4%
same,"viability, T/C",[35],57.1%
same,"viability, T/C",[36],34.2%
same,"viability, T/C",[37],21.5%
same,"viability, T/C",[38],12.4%
same,"viability, T/C","second compound 3.16 µM, first compound 0.0316 µM",61.1%
same,"viability, T/C","second compound 3.16 µM, first compound 0.1 µM",53.6%
same,"viability, T/C","second compound 3.16 µM, first compound 0.316 µM",43.8%
same,"viability, T/C","second compound 3.16 µM, first compound 1 µM",32.8%
same,"viability, T/C","second compound 3.16 µM, first compound 3.16 µM",20.8%
same,"viability, T/C","second compound 3.16 µM, first compound 10 µM",10.1%
same,"viability, T/C","second compound 10 µM, first compound 0.0316 µM",38%
same,"viability, T/C","second compound 10 µM, first compound 0.1 µM",34.6%
same,"viability, T/C","second compound 10 µM, first compound 0.316 µM",28.7%
same,"viability, T/C","second compound 10 µM, first compound 1 µM",20.1%
same,"viability, T/C","second compound 10 µM, first compound 3.16 µM",13.2%
same,"viability, T/C","second compound 10 µM, first compound 10 µM",5.54%
CC(Cn1ccc(-c2ccc(C#N)c(Cl)c2)n1)NC(=O)c1cc(C(C)O)[nH]n1 (centres undefined),"viability, T/C",compound 0.0316 µM,108% [middle of 4 runs]
same,"viability, T/C",compound 0.1 µM,94.8% [middle of 4 runs]
same,"viability, T/C",compound 0.316 µM,105% [middle of 4 runs]
same,"viability, T/C",compound 1 µM,104% [middle of 4 runs]
same,"viability, T/C",compound 3.16 µM,88.8% [middle of 4 runs]
same,"viability, T/C",compound 10 µM,81.1% [middle of 4 runs]
same,IC50,curve of compound,> 10000 nM
